# Assay results from patent US20170079966A1, “INHIBITION OF TUMOR CELL INTERACTIONS WITH THE MICROENVIRONMENT RESULTING IN A REDUCTION IN TUMOR GROWTH AND DISEASE PROGRESSION” (Deciphera Pharmaceuticals, LLC, priority 2014, published 2017).
# Read-outs that look alike come from different tables or passages of the source.
# Legend:
# [1] = test system: SK-MEL-28 cells; assay: HGF-stimulated melanoma proliferation cell assay; format: cell-based; details: Homo sapiens, 72 h
# Experimental: SK-MEL-28 cells were added to 96-well plates (2,500 cells/well). Effects on cell proliferation were assessed by incubation of SK-MEL-28 cells in complete media, media containing 50 ng/mL HGF, or media mixed 1:1 with MRC-5 fibroblast-conditioned media. Plates were incubated for 72 h.
# [2] = test system: SK-MEL-28 and SK-MEL-5 cells (pERK, pMET, AKT); assay: HGF-stimulated melanoma cell signal transduction assay; format: cell-based; details: 50 nM
# Experimental: SK-MEL-5 and SK-MEL-28 cells were added to 12-well plates at 450,000 and 250,000 cells/well, respectively, and incubated overnight. […] Cells were then stimulated with 50 ng/mL HGF for 1 hr. Antibodies were obtained from Cell Signaling Technology.
# [3] = test system: PyMT mammary tumor; assay: PyMT syngeneic breast cancer model; format: in vivo, mice
# Experimental: Female FVB/NJ mice were implanted in the 4th mammary fat pad with one million cells that had been dissociated from tumor fragments from MMTV-PyMT donor mice. […] Mice (n=10/group) were dosed for three weeks, then, primary tumor and lungs were collected and fixed. Lung sections were stained with H&E at Premier Laboratory. Lung metastases (≧10 cells) were counted manually via microscopy. Data were analyzed via one-way analysis of variance (ANOVA), with post-hoc analysis by the method of Holm-Sidak. For analysis of TIE2-positive macrophages, tumor sections were stained with TIE2 and CD31 antibodies at Premier Laboratory. The density of TIE2-positive cells at the stroma/tumor boundary in each tumor was scored using 0=no staining, 1=low, 2=medium, and 3=high.
# [4] = test system: U87-MG xenograft glioma; assay: Orthotopic U87-MG xenograft efficacy model (BLI); format: in vivo, mice; details: after two weeks of treatment; bevacizumab 5 mg/kg IP every three days; Compound 1 10 mg/kg BID
# Experimental: Protocol for in vivo xenograft efficacy study. […] Treatments began on Day 31.
# The tumor cells were injected intracerebroventricularly (ICV) and tumor growth was monitored in vivo by quantitation of luciferase-mediated BLI.
# [5] = test system: GSC17 glioblastoma cells; assay: GSC17 glioma stem cell patient-derived xenograft model (tumor volume, immunohistochemistry); format: in vivo, mice
# Experimental: (§1) For the in vivo experiments, 4- to 6-week-old female nude mice that were strictly inbred at The University of Texas MD Anderson Cancer Center and maintained in the MD Anderson Veterinary in accordance with institutional guidelines were used. For the in vivo experiments, GSC11 (5×10^5) or GSC17 (5×10^4) glioblastoma cells were implanted intracranially into nude mice. […] Control mice for these cohorts were treated with phosphate-buffered saline by i.p. injection and/or with 0.4% HPMC vehicle by oral gavage. One cohort of 10 mice per group were treated continuously and followed for survival. A separate cohort of 9 mice per group were treated continuously until the designated time point, and the tumors from these mice were extracted at 3, 4, 5 weeks in GSC11 xenograft mice model and at 3.5, 4.5, 5.5 weeks in GSC17 xenograft mice model after the start of treatment.
# (§2) When the mice treated for the designated time period developed signs and symptoms of advanced tumors, they were euthanized, and their brains were removed, fixed in 4% formaldehyde for 24 hours, and embedded in paraffin. The tissues were then sectioned serially (4 μm) and stained with hematoxylin and eosin (Sigma-Aldrich). Tumor formation and phenotype were determined by histologic analysis of the hematoxylin- and eosin-stained sections. The tumor volume, greatest longitudinal diameter (length), and greatest transverse diameter (width) were measured using an external caliper and Adobe Illustrator software. The tumor volumes were calculated by the following formula: volume=½(length×width^2).
# (§3) For immunohistochemical analyses, the tissue sections were deparaffinized and subjected to graded rehydration. After blocking the tissue in 5% horse and goat serum and antigen retrieval solution (citrate buffer, pH 6.0), we incubated the tissue sections overnight at 4° C. with primary antibodies against Factor VIII (1:500; A0082, Dako) to assess microvessel formation, vimentin (1:100; M0725, Dako) to assess mesenchymal marker expression, F4/80 (1:50; 123102, BioLegend) to assess monocyte infiltration, nestin (1:300; Ab6142, Abcam) to assess glioma stem cell marker expression, HGF (1:200; LS-B4657, LSBio), and TIE2 (1:50; Santa Cruz Biotechnology) to assess TIE2-expressing monocyte infiltration. Texas red fluorescein isothiocyanate-conjugated secondary antibodies or anti-rat immunoglobulin G antibodies (Invitrogen) were used for 1 hour at room temperature.
# (§4) All statistical analyses were conducted with the GraphPad 6 (InStat) software for Windows 7. Survival analysis was conducted using the Kaplan-Meier method, and differences in survival between treatment groups were assessed using the log-rank test. All other comparisons were performed using an unpaired two-tailed Student t-test. Summary statistics for continuous data are expressed as the mean±standard error of the mean. P values less than 0.05 were considered statistically significant. The nestin staining was assessed using the Image-Pro Plus system version 7.0 (Media Cybernetics) in ×10 fields of at least three tumor samples per group with three to four different sections per tumor sample.
# [6] = test system: circulating TIE2+ and TIE2+/MET+ monocytes; assay: Flow cytometry of circulating TIE2/MET-expressing monocytes from U87-MG xenograft model; format: in vivo, mice; details: single agents; after five weeks of treatment
# Experimental: Flow cytometry of circulating TIE2/MET-expressing monocytes from U87-MG xenograft model. Peripheral blood samples were fixed using Lyse/Fix buffer (BD Biosciences, San Jose, Calif.). BD Fc Block was added and cells were stained with CD11b-PECy7 and Gr1-APC antibodies (BD Pharmingen), and TIE2-PE and MET-FITC antibodies (eBioscience) or isotype controls. Data was collected on an Accuri C6 cytometer. Monocytes were gated using side and forward scatter.
# To monitor these monocytes in the U87 survival model, peripheral monocytes were gated on CD11b+/Grl-surface markers and TIE2^+ and/or TIE2^+/MET^+ cells quantitated. In the U87 glioma survival study, we observed both of these TIE2^+ expressing monocyte populations in the circulation of vehicle-treated mice after five weeks of treatment. […] The lowered population of both of these TIE2^+ monocyte populations in the combination cohort was consistent with greater survival benefit (FIG. 6).
# [7] = test system: GSC11 glioblastoma cells; assay: GSC11 glioma stem cell patient-derived xenograft model (tumor volume, immunohistochemistry); format: in vivo, mice
# Experimental: as §1, §2, §3, §4
compound,measurement,setting,value
CC(C)(C)c1nc(-c2cccc(NS(=O)(=O)c3c(F)cccc3F)c2F)c(-c2ccnc(N)n2)s1 [dabrafenib],IC50,"[1]; 50 ng/mL HGF or MRC-5 fibroblast-conditioned media, read-out: IC50, proliferation of SK-MEL-28 with HGF or fibroblast-conditioned media",> 10000 nM
same,IC50,"[1]; complete media, read-out: IC50, proliferation of SK-MEL 28",10.6 nM
same,Phosphorylation of ERK upon HGF stimulation,[2]; 50 ng/mL HGF 1 hr,ERK remained fully phosphorylated
same,Phosphorylation of ERK,[2]; no HGF,inhibited phosphorylation
"CC(=O)O[C@H]1C(=O)[C@@]2(C)[C@H]([C@H](OC(=O)c3ccccc3)[C@]3(O)C[C@H](OC(=O)[C@H](O)[C@@H](NC(=O)c4ccccc4)c4ccccc4)C(C)=C1C3(C)C)[C@]1(OC(C)=O)CO[C@@H]1C[C@@H]2O [paclitaxel, reference compound]",Tumor growth inhibition (TGI),"[3]; after dosing for three weeks, paclitaxel 10 mg/kg i.v. every 5 days, Compound 1 15 mg/kg twice daily",42%
same,Reduction of TIE2 score (stromal density of TIE2+ cells),[3]; same dosing,did not reduce
same,Reduction of lung metastases compared to controls,[3]; same dosing,64%
bevacizumab [reference compound],Decrease in BLI signal compared to vehicle,[4],63%
same,Tumor volume at 3.5 weeks,"[5]; GSC17, bevacizumab 10 mg/kg i.p. twice per week, Compound 1 10 mg/kg oral twice daily",0.4±0.4 mm^3
same,Tumor volume at 4.5 weeks,"[5]; GSC17, same dosing",0.05±0.03 mm^3
same,Tumor volume at 5.5 weeks,"[5]; GSC17, same dosing",9.6±4.6 mm^3
same,Factor VIII-positive area,[5]; GSC17 xenograft mouse model,3.0±0.3%
same,Nestin-positive area,[5]; GSC17 xenograft mouse model,20.6±2.7%
same,Mesenchymal tumor marker vimentin / EMT (immunohistochemistry),[5]; GSC-17 glioma model,therapy-induced increase in EMT
same,Tumor infiltration of TIE2-positive/F4/80-positive cells,[5]; GSC-17 glioma xenograft model,increased
same,Numbers of circulating TIE2+ and TIE2+/MET+ monocyte populations,[6],did not alter
same,Tumor volume at 3 weeks,"[7]; GSC11, bevacizumab 10 mg/kg i.p. twice per week, Compound 1 10 mg/kg oral twice daily",14.3±6.9 mm^3
same,Tumor volume at 4 weeks,"[7]; GSC11, same dosing",30.7±4.2 mm^3
same,Tumor volume at 5 weeks,"[7]; GSC11, same dosing",46.6±4.5 mm^3
same,Factor VIII-positive area,[7]; GSC11 model,3.3±1.1%
same,Nestin-positive area,[7]; GSC11 xenograft mouse model,59.8±6.0%
same,Mesenchymal tumor marker vimentin / EMT (immunohistochemistry),[7]; GSC-11 glioma model,therapy-induced increase in EMT
same,Macrophage infiltration into tumor (F4/80 IHC staining),[7]; GSC-11 glioma xenograft model,stimulating the influx of tumor-promoting macrophages
